Key:
Type in all cases: in vivo
[1] = test system: winter barley (Hordeum vulgare); experiment: Test C pre-/postemergence plant response
Procedure, shortened: (§1)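 Greenhouse-type test under controlled conditions: soil-surface preemergence treatment of sown seed and foliar postemergence treatment of seedlings 2–18 cm tall. Each compound was in non-phytotoxic solvent with surfactant. Response was rated by eye after 15–25 days, 0 to 100, against controls.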

canola (Brassica rapa) = experiment: Test C pre-/postemergence plant response
Procedure, shortened: as §1

[2] = test system: blackgrass (Alopecurus myosuroides); experiment: Test A pre-/postemergence plant response
Procedure, shortened: (§2)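 Seeds in loam soil/sand blend treated preemergence by directed soil spray, with simultaneous postemergence spray on 2–10 cm plants at one- to two-leaf stage; compounds in non-phytotoxic solvent with surfactant. Injury visually rated versus untreated controls after about 10 days in greenhouse, 0 (no effect) to 100 (complete control).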

[3] = test system: canarygrass (Phalaris minor); experiment: Test A pre-/postemergence plant response
Procedure, shortened: as §2

[4] = Postemergence, 8 g ai/ha, scale 0 to 100, 0 no effect, 100 complete control
[5] = Postemergence, 16 g ai/ha, scale 0 to 100, 0 no effect, 100 complete control
[6] = Postemergence, 31 g ai/ha, scale 0 to 100, 0 no effect, 100 complete control
[7] = Postemergence, 62 g ai/ha, scale 0 to 100, 0 no effect, 100 complete control
[8] = Preemergence, 8 g ai/ha, scale 0 to 100 (0 no effect, 100 complete control)
[9] = Preemergence, 16 g ai/ha, scale 0 to 100 (0 no effect, 100 complete control)
[10] = Preemergence, 31 g ai/ha, scale 0 to 100 (0 no effect, 100 complete control)
[11] = Preemergence, 62 g ai/ha, scale 0 to 100, 0 no effect, 100 complete control
[12] = Postemergence, 31 g ai/ha, 0 to 100 scale, 0 no effect, 100 complete control
[13] = Postemergence, 125 g ai/ha, 0 to 100 scale, 0 no effect, 100 complete control
[14] = Preemergence, 31 g ai/ha, 0 to 100 scale, 0 is no effect, 100 is complete control
[15] = Preemergence, 125 g ai/ha, 0 to 100 scale (0 no effect, 100 complete control)

SMILES: Cc1nn(C)c(=O)c(-n2nc(-c3ccc(Cl)cc3)cc2C)c1O [Compound 15]
- Plant response rating, Barley, Winter [1, 4]: 0
- Plant response rating, Barley, Winter [1, 5]: 0
- Plant response rating, Barley, Winter [1, 6]: 10
- Plant response rating, Barley, Winter [1, 7]: 90
- Plant response rating, Barley, Winter [1, 8]: 0
- Plant response rating, Barley, Winter [1, 9]: 20
- Plant response rating, Barley, Winter [1, 10]: 50
- Plant response rating, Barley, Winter [1, 11]: 60
- Plant response rating, Canola (canola (Brassica rapa); [4]): 0
- Plant response rating, Canola (canola (Brassica rapa); [5]): 0
- Plant response rating, Canola (canola (Brassica rapa); [6]): 0
- Plant response rating, Canola (canola (Brassica rapa); [7]): 0
- Plant response rating, Canola (canola (Brassica rapa); [8]): 0
- Plant response rating, Canola (canola (Brassica rapa); [9]): 0
- Plant response rating, Canola (canola (Brassica rapa); [10]): 0
- Plant response rating, Canola (canola (Brassica rapa); [11]): 0

SMILES: Cc1cc(-c2ccc(Cl)cc2)nn1-c1c(OC(=O)CC(C)C)cnn(C)c1=O [Compound 37]
- Plant response rating, Barley, Winter [1, 4]: 10
- Plant response rating, Barley, Winter [1, 5]: 10
- Plant response rating, Barley, Winter [1, 6]: 25
- Plant response rating, Barley, Winter [1, 7]: 95
- Plant response rating, Barley, Winter [1, 8]: 0
- Plant response rating, Barley, Winter [1, 9]: 0
- Plant response rating, Barley, Winter [1, 10]: 20
- Plant response rating, Barley, Winter [1, 11]: 40
- Plant response rating, Canola (canola (Brassica rapa); [4]): 0
- Plant response rating, Canola (canola (Brassica rapa); [5]): 0
- Plant response rating, Canola (canola (Brassica rapa); [6]): 0
- Plant response rating, Canola (canola (Brassica rapa); [7]): 0
- Plant response rating, Canola (canola (Brassica rapa); [8]): 0
- Plant response rating, Canola (canola (Brassica rapa); [10]): 0
- Plant response rating, Canola (canola (Brassica rapa); [11]): 0

SMILES: Cc1cc(-c2ccc(C(F)(F)F)c(F)c2)nn1-c1c(O)c(C(F)(F)F)nn(C)c1=O [Compound 44]
- Plant response rating, Barley, Winter [1, 4]: 20
- Plant response rating, Barley, Winter [1, 5]: 75
- Plant response rating, Barley, Winter [1, 6]: 90
- Plant response rating, Barley, Winter [1, 7]: 95
- Plant response rating, Barley, Winter [1, 8]: 0
- Plant response rating, Barley, Winter [1, 9]: 50
- Plant response rating, Barley, Winter [1, 10]: 75
- Plant response rating, Barley, Winter [1, 11]: 75
- Plant response rating, Canola (canola (Brassica rapa); [4]): 0
- Plant response rating, Canola (canola (Brassica rapa); [5]): 0
- Plant response rating, Canola (canola (Brassica rapa); [6]): 0
- Plant response rating, Canola (canola (Brassica rapa); [7]): 0
- Plant response rating, Canola (canola (Brassica rapa); [8]): 0
- Plant response rating, Canola (canola (Brassica rapa); [9]): 0
- Plant response rating, Canola (canola (Brassica rapa); [10]): 0
- Plant response rating, Canola (canola (Brassica rapa); [11]): 0

SMILES: Cc1nn(C)c(=O)c(-c2nc(-c3ccc(Cl)cc3)sc2C)c1O [Compound 79, 4-[2-(4-chlorophenyl)-5-methyl-4-thiazolyl]-5-hydroxy-2,6-dimethyl-3(2H)-pyridazinone]
- Plant response rating, Blackgrass [2, 12]: 60
- Plant response rating, Blackgrass [2, 13]: 100
- Plant response rating, Blackgrass [2, 14]: 80
- Plant response rating, Blackgrass [2, 15]: 100
- Plant response rating, Canarygrass [3, 12]: 40
- Plant response rating, Canarygrass [3, 13]: 90
- Plant response rating, Canarygrass [3, 14]: 0
- Plant response rating, Canarygrass [3, 15]: 100

SMILES: COc1nn(C)c(=O)c(-n2nc(-c3ccc(Br)cc3)cc2C)c1O [Compound 82]
- Plant response rating, Blackgrass [2, 12]: 100
- Plant response rating, Blackgrass [2, 13]: 100
- Plant response rating, Blackgrass [2, 14]: 70
- Plant response rating, Blackgrass [2, 15]: 100
- Plant response rating, Canarygrass [3, 12]: 100
- Plant response rating, Canarygrass [3, 13]: 100
- Plant response rating, Canarygrass [3, 14]: 20
- Plant response rating, Canarygrass [3, 15]: 100

SMILES: CCc1c(C)c(-c2ccc(Br)cc2)nn1-c1c(O)cnn(C)c1=O [Compound 83]
- Plant response rating, Blackgrass [2, 12]: 90
- Plant response rating, Blackgrass [2, 13]: 100
- Plant response rating, Blackgrass [2, 14]: 20
- Plant response rating, Blackgrass [2, 15]: 100
- Plant response rating, Canarygrass [3, 12]: 70
- Plant response rating, Canarygrass [3, 13]: 100
- Plant response rating, Canarygrass [3, 15]: 90

SMILES: Cc1cn(-c2ccc(C(F)(F)F)cc2)nc1-c1c(O)cnn(C)c1=O [Compound 85, 5-hydroxy-2-methyl-4-[4-methyl-1-[4-(trifluoromethyl)phenyl]-1H-pyrazol-3-yl]-3(2H)-pyridazinone]
- Plant response rating, Blackgrass [2, 12]: 0
- Plant response rating, Blackgrass [2, 13]: 40
- Plant response rating, Blackgrass [2, 14]: 0
- Plant response rating, Blackgrass [2, 15]: 40
- Plant response rating, Canarygrass [3, 12]: 0
- Plant response rating, Canarygrass [3, 13]: 20
- Plant response rating, Canarygrass [3, 14]: 40
- Plant response rating, Canarygrass [3, 15]: 70

SMILES: Cn1ncc(O)c(-c2nn(-c3ccc(C(F)(F)F)cc3)cc2Br)c1=O [Compound 87, 4-[4-bromo-1-[4-(trifluoromethyl)phenyl]-1H-pyrazol-3-yl]-5-hydroxy-2-methyl-3(2H)-pyridazinone]
- Plant response rating, Blackgrass [2, 12]: 30
- Plant response rating, Blackgrass [2, 13]: 80
- Plant response rating, Blackgrass [2, 14]: 30
- Plant response rating, Blackgrass [2, 15]: 90
- Plant response rating, Canarygrass [3, 12]: 10
- Plant response rating, Canarygrass [3, 13]: 70
- Plant response rating, Canarygrass [3, 14]: 0
- Plant response rating, Canarygrass [3, 15]: 90

Source: US20100267561A1, “HERBICIDAL PYRIDAZINONE DERIVATIVES” (priority 2007, published 2010)
